Literature values, collected in patent US6342251B1, “Compositions for nasal administration” (West Pharmaceutical Services Drug Delivery & Clinical …, priority 1997, dated 2002).

Experiments:
[1] = patients, erectile dysfunction
[2] = Parkinson's disease

Question: What does the source list for `CN1CCc2cccc3c2[C@H]1Cc1ccc(O)c(O)c1-3` [apomorphine, (6aR)-5,6,6a, 7-tetrahydro-6-methyl-4H-dibenzo(d, e, g) quinoline-10, 11-diol hemihydrate]?
Answer: side effects after nasal administration [1]: unacceptable side effects such as yawning, nausea, vomiting, dizziness, blurred vision, diaphoresis, pallor and mild hypertension; local reactions after intranasal administration [2]: transient nasal blockage and a burning sensation
